Experimental data from ChEMBL document CHEMBL1201862, “PubChem BioAssay data set” (2004).
Activity calls are given as the source filed them.

Legend:
HEK293 [1] = assay: optical interference in Abeta FP readout, dose response, artefact control for IDE activator project, biochemical, fluorescence polarization (AID 588442); assay type: functional, cell-based; details: Homo sapiens
Insulin-degrading enzyme [2] = target: T1, Insulin-degrading enzyme (Homo sapiens, UniProt P14735); assay: activators of endogenous IDE in HEK cells, dose response, cell-based, fluorescence polarization (AID 588439); assay type: functional
T1 sequence (P14735 whole entry): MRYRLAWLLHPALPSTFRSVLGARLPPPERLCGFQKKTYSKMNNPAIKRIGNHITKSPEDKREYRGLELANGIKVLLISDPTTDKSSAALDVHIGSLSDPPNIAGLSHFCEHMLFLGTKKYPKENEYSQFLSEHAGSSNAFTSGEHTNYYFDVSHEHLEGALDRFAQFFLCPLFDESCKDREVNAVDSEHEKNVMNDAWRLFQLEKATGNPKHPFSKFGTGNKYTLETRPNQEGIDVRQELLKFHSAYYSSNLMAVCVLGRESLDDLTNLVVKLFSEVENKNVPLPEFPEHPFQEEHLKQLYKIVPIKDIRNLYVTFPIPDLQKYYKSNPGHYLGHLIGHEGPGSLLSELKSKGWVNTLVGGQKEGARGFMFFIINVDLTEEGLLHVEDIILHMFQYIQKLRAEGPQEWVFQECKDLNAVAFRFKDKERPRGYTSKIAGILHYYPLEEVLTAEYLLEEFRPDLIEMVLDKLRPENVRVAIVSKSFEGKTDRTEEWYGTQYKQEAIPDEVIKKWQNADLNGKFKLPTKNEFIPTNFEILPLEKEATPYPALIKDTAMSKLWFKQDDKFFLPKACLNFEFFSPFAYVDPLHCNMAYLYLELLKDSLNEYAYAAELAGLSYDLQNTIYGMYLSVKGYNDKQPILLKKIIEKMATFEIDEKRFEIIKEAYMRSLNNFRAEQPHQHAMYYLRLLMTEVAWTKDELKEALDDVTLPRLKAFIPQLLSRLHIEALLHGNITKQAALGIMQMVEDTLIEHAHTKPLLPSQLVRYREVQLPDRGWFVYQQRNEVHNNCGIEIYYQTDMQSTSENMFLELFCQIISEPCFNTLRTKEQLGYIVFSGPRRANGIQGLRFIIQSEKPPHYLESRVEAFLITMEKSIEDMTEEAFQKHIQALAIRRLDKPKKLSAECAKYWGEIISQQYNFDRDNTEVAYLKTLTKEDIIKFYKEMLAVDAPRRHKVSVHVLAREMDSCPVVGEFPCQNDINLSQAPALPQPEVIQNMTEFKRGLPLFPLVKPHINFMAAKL

HEK293 [3] = assay: HEK cell cytotoxicity by LDH release, dose response, cytotoxicity control for IDE activator project, fluorescence, HEK cells (AID 588440); assay type: functional, cell-based; details: Homo sapiens;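 further: cytotoxicity by LDH release measuring loss of membrane integrity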
Insulin-degrading enzyme [4] = target: T1, Insulin-degrading enzyme; assay: activators of recombinant IDE enzyme, dose response, counter-screen for IDE activator project, biochemical, fluorescence polarization (AID 588681)
Melanocortin receptor 4 = Melanocortin receptor 4 (Homo sapiens, UniProt P32245); assay type: functional, cell-based;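 further: Cell-based assay with luminescence read-out, confirmatory dose-response testing for agonist activity of biased ligands at MC4R; human U2OS cells with tagged receptor and beta-arrestin; potency of agonists that increase receptor coupling to beta-arrestin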
[5] = target: T2, Ubiquitin-conjugating enzyme E2 N (Homo sapiens, UniProt P61088); assay type: functional;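 further: Dose-response confirmation in a TR-FRET assay detecting UBC13-driven polyubiquitin chain formation, inhibition measured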
T2 sequence (P61088 whole entry): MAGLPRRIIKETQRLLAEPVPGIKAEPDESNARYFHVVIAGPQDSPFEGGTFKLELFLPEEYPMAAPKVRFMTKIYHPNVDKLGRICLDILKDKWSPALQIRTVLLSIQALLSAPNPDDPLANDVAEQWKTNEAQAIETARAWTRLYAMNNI

[6] = inhibitors of intracellular T. cruzi replication, confirmation, NIH3T3 host cells, beta-gal luminescence (AID 2044); assay type: functional, cell-based;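 further: intracellular parasites grown in NIH/3T3 mouse fibroblasts as host cells; luminescent beta-galactosidase reporter signal from transgenic T. cruzi replicating inside host cells; inhibitors lower the luminescence signal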
[7] = cytotoxicity toward NIH3T3 fibroblasts, dose response, counter-screen, cell-based, ATP luminescence, mouse fibroblasts (AID 2010); assay type: functional;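 further: cells exposed to compound for about 90 hours before reading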
[8] = target: T3, Heat shock factor protein 1 (Mus musculus, UniProt P38532); assay: HSF1 potentiators in luciferase reporter cells, confirmation, cell-based, NIH3T3, luminescence, dose retest (AID 435004); assay type: functional;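 further: stress induced by proteasome inhibitor MG132 added 30 min after compound; luciferase reporter driven by HSF1 response element in NIH3T3 cells; actives raise luminescence as potentiators of the MG132 stress response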
T3 sequence (P38532 whole entry): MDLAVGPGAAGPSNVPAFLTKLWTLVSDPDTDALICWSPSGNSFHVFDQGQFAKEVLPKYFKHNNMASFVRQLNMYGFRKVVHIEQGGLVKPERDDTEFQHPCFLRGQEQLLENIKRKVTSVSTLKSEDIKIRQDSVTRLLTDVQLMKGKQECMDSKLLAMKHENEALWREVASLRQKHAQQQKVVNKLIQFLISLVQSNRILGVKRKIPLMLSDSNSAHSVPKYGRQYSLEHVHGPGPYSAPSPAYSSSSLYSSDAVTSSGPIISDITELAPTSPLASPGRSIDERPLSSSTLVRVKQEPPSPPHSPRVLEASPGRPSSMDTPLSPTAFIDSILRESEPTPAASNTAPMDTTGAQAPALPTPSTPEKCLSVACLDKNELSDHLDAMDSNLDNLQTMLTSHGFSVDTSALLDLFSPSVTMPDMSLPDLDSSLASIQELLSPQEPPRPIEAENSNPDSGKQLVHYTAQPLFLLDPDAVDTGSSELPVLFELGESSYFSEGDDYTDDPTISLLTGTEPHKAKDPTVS

[9] = target: T4, Hepatocyte nuclear factor 4-alpha (Homo sapiens, UniProt P41235); assay type: functional, cell-based;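 further: biochemical luminescence-based dose-response counterscreen measuring inhibition of HNF4 dimerization, run alongside a screen for blockers of ABHD5–perilipin-5 interaction; split luciferase complementation of HNF4 fusion proteins in cell lysate measuring dimerization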
T4 sequence (P41235 whole entry): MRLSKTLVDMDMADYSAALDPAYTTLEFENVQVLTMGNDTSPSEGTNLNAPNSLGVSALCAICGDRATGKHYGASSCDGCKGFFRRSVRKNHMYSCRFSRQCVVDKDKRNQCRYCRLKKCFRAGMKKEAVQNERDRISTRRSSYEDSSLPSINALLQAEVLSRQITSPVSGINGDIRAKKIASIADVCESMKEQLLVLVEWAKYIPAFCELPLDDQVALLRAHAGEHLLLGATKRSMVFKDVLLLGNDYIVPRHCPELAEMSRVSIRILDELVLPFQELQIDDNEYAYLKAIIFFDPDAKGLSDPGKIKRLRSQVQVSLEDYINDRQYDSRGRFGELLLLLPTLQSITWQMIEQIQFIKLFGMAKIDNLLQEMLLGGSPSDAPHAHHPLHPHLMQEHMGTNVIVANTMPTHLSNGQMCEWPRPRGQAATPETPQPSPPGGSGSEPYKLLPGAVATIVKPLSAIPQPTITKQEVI

INS1 = assay: beta cell apoptosis inhibitors, cytokine rescue, dose response, luminescence, retest (AID 449756); assay type: functional, cell-based; details: Rattus norvegicus;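 further: cell death triggered by IL-1 beta plus TNF-alpha plus IFN-gamma mixture; protective hits raise ATP signal compared with cytokine alone wells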
[10] = control 3'UTR Renilla luciferase suppression, dose response, counter-screen for Shn3 inhibitor project, cell-based, Clone20-Shn3RL, cherry-picked (AID 624133); assay type: functional
[11] = HepG2 cell cytotoxicity, dose response, cytotoxicity control for Shn3 inhibitor project, CellTiter-Glo, cherry-picked (AID 624134); assay type: functional, cell-based
[12] = Shn3 3'UTR reporter inhibitors, dose response, cell-based, Clone20 osteoblasts, firefly luciferase, cherry-picked (AID 624132); assay type: functional;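 further: firefly luciferase luminescence from reporter carrying the Shn3 3'UTR in osteoblasts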

Melanocortin receptor 4, sequence (P32245 whole entry): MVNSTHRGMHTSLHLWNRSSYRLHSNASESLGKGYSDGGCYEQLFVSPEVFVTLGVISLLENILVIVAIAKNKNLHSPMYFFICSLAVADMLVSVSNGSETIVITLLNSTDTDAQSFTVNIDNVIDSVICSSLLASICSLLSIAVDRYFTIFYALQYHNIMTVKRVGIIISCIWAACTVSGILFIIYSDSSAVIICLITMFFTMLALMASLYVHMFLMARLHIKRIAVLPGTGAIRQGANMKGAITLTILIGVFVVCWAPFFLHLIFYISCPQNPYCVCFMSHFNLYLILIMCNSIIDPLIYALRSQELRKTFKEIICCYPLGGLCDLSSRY

Structure (SMILES)	EC50 (HEK293 [1])	EC50 (Insulin-degrading enzyme [2])	IC50 (HEK293 [3])	EC50 (Insulin-degrading enzyme [4])	other results
CC1CN(S(=O)(=O)c2ccc(C(=O)Nc3nncs3)cc2)CC(C)O1 (stereo not drawn)	> 54.7 µM (inactive)	> 54.7 µM (inactive)	> 89.2 µM (inactive)	> 54.7 µM (inactive)	–
O=C(CCN1C(=O)/C(=C/C=C/c2ccccc2)SC1=S)Nc1cccnc1	–	–	–	–	EC50 (Melanocortin receptor 4): > 89.2 µM (inactive)
CCN1CCN(CCNC(=O)c2ccc(/C=C3/Sc4ccccc4N(Cc4cccc(C)c4)C3=O)cc2)CC1	> 54.7 µM (inactive)	23.2 µM (inactive)	20.2 µM (inactive)	> 54.7 µM (inactive)	IC50 [5]: > 20 µM (inactive); EC50 [6]: 1.29 µM (active); EC50 [7]: 8.45 µM (active)
CC(=O)Oc1c(Cl)cc(N(C(C)=O)S(=O)(=O)c2ccccc2)c2ccccc12	–	–	–	–	EC50 [8]: > 260 µM (inactive); IC50 [9]: 10.1 µM (inactive); AC50 (INS1): 4.34 µM (active)
CCOC(=O)C(/C=N/c1ccc2c(c1)nnn2-c1ccc(Cl)cc1)=C(\O)OCC	–	–	–	–	EC50 (Melanocortin receptor 4): > 89.2 µM (inactive)
COc1ccc(/C=C2\Oc3cc(OCC(=O)N4CCC(C(=O)O)CC4)ccc3C2=O)c(OC)c1OC	24 µM (inactive)	22 µM (inactive)	> 89.2 µM (inactive)	33 µM (inactive)	–
OC[C@@H]1CN(Cc2ccncc2)C[C@H](n2cnc3c(N4CCN(c5ccccc5)CC4)ncnc32)O1	–	–	–	–	AC50 [10]: 5.72 µM (active); AC50 [11]: 3.81 µM (active); AC50 [12]: 2.38 µM (active)
